Measurements taken from article PMC12257394, “Design, Synthesis, and Biological Evaluation of Ferrocenyl–Cyclo-(Gly‑L‑Pro) Hybrids Sensitizing Multidrug-Resistant Cancer Cells to Anticancer Agents” (ACS Medicinal Chemistry Letters, 2025).
Entries after “also recorded” stand apart in the source; their conditions may differ.

Legend:
ABCG2 = molecular target: T1, ABCG2 (Homo sapiens, UniProt Q9UNQ0); experiment: 5D3 antibody-binding assay in SW620Mito cells; assay type: cell-based; conditions: 1 μM compound, n = 3
T1 construct: ABCG2-overexpressing SW620C and SW620Mito; endogenous in cells; host or cells: SW620Mito (mitoxantrone-resistant variant of SW620, developed in the authors' laboratory by drug selection)
T1 sequence (Q9UNQ0 1-655): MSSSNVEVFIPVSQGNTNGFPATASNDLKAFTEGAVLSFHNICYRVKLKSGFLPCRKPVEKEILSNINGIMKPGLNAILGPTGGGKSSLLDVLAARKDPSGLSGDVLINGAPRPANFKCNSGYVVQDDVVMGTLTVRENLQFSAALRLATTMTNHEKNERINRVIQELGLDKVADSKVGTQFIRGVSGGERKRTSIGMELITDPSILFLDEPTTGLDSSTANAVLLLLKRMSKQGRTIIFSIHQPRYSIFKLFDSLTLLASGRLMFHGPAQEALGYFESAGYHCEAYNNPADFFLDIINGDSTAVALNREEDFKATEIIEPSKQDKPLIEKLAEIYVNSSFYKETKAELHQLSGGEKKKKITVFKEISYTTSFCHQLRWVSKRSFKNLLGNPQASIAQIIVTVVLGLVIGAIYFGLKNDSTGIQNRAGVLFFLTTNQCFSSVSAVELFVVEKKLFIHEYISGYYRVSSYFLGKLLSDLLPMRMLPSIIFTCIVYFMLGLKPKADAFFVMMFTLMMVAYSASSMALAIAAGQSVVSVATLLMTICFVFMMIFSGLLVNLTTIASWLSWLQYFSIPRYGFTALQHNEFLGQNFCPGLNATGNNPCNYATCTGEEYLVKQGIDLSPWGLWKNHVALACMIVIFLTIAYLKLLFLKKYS
Source text: (§1) To obtain deeper insight into the direct interactions between the investigated inhibitors and transporter protein molecules, we used two commercially available antibodies, UIC-2 and 5D3, which recognize the active forms of ABCB1 and ABCG2, respectively. These antibodies specifically recognize epitopes that are exposed when the transporter interacts with the allocrite.
(§2) A total of 106 parental SW620 cells expressing low level of ABC proteins or their multidrug - resistant variant SW620V cells (overexpressing ABCB1) or SW620Mito cells (overexpressing ABCG2) were suspended in 1 mL of complete culture medium supplemented with solvent (DMSO), a positive control (vincristine/mitoxantrone), or an investigated compound at a final concentration of 1 µM. APC-conjugated UIC2 anti-ABCB1/FITC-conjugated 5D3 anti-ABCG2 antibody or the respective isotype control was then added to a final concentration of 5 µg/mL, and the samples were incubated at 37°C for 60 min. Then, the cells were washed three times (100 × g for 10 min) with fresh medium and analyzed using a FACSymphony A1 (Becton, Dickinson and Company, New Jersey, USA) instrument. Results were expressed as a difference of median of fluorescence of a given sample (specific binding of antibody) and the respec tive isotype control (unspecific binding). […]
(§3) All experiments were performed at least three times, and the data were statistically analyzed

ABCB1 = molecular target: T2, ABCB1 (Homo sapiens, UniProt P08183); experiment: UIC-2 antibody-binding assay in SW620V cells; assay type: cell-based; conditions: 1 μM compound, n = 3
T2 construct: ABCB1-overexpressing SW620V cells; endogenous in cells; host or cells: SW620V (vincristine-resistant variant of SW620, developed in the authors' laboratory by drug selection)
T2 sequence (P08183 whole entry): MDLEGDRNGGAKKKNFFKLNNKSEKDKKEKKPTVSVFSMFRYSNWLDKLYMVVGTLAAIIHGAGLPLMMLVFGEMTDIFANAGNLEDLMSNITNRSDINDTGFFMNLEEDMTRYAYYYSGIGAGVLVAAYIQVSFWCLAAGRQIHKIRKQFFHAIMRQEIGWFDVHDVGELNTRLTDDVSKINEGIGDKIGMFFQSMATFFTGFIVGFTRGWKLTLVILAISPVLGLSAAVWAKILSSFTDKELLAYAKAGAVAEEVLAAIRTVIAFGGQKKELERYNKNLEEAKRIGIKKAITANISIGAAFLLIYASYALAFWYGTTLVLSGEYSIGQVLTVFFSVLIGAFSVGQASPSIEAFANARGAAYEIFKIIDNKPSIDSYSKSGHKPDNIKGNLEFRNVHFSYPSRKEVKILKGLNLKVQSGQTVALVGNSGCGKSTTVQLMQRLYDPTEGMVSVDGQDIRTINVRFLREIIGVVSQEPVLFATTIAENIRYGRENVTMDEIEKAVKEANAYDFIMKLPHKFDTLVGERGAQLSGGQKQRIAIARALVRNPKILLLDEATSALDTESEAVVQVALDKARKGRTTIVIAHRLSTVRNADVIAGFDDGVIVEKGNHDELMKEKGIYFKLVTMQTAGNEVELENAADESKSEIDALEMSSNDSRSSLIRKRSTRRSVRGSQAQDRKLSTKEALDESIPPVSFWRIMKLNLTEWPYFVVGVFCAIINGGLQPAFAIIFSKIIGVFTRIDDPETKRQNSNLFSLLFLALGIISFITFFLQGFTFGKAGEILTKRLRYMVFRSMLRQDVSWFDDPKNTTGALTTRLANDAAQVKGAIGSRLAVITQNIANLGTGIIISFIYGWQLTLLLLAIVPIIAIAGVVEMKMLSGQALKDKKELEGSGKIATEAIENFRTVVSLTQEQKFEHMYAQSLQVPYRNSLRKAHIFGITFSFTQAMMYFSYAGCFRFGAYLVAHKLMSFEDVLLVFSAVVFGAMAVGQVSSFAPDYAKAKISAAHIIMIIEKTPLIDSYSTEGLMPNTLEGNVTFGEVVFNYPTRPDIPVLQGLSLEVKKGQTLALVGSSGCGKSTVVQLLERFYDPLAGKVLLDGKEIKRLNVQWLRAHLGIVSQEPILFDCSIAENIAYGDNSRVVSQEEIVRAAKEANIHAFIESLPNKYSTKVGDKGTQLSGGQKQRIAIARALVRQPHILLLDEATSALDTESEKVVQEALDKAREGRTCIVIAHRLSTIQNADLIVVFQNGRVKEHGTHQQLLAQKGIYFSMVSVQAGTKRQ
Source text: as §1, §2, §3

[1] = Neutral red uptake viability assay, SW620Mito; assay type: cell-based, human; conditions: human, SW620Mito cells (mitoxantrone-resistant), 72 h, n = 3, read-out: Cytotoxic activity IC50 (95% CI)
Description: (§4) In general, compounds 4a–e exerted little or no cytotoxic effect on either SW620 or multidrug-resistant sublines even at 10 μM, with the remarkable exception of SW620C (cisplatin-selected variant of SW620) cells, which turned out to be relatively susceptible toward ferrocenyl 4a–c. […] This trend may reflect steric or electronic contributions to cellular uptake or interaction with intracellular targets. […] However, since E/Z isomeric data are currently available only for compound 4c, this hypothesis requires validation. To quantify this effect, IC50 values were determined (Table ). […]
(§5) The normal lung fibroblast MRC-5 and colorectal adenocarcinoma SW620 cell lines used in this experiment were purchased from American Type Culture Collection (USA) via LGC […]
(§6) Standards. Multidrug-resistant variants of SW620 cells were developed in our laboratory as described previously.10, 11 All cells were cultured under standard conditions (37°C, 5% CO2, 100% humidity) in high-glucose DMEM supplemented with GlutaMaxTM, HEPES (ThermoFisher Scientific, USA), and 10% fetal bovine serum (EURx, Poland). Cells were routinely tested for potential Mycoplasma contamination using the MycoProbe Mycoplasma Detection kit (R&D System, USA).
(§7) In total, 104 cells in 100 µL of complete medium were plated per well of a 96-well plate and left overnight to allow cells to adhere to the surface. Then, the cells were exposed to a desired concentration of tested compound(s). Stock solutions were prepared in DMSO and used immediately. The final DMSO concentration was constant and nontoxic (0.1% v/v). After 70-h incubation, neutral red was added to the final concentration of 1 mM. After another 2 h, the medium was aspirated, and cells were washed twice with PBS. Dye was released using 100 µL of a solubilizer (1% acetic acid in 50% ethanol) on an orbital shaker (10 min). Absorbance was read at 540 nm using EnVision Multilabel Plate Reader (Perkin Elmer, USA). Results were expressed as % of control. The IC50 parameters were calculated using GraphPad Prism version 10 (GraphPad Software, Boston, Massachusetts USA). […]
(§8) All experiments were performed in triplicate (n = 3).

[2] = Neutral red uptake viability assay, SW620E; assay type: cell-based, human; conditions: human, SW620E cells (etoposide-resistant), 72 h, n = 3, read-out: Cytotoxic activity IC50 (95% CI)
Description: as §4, with “To evaluate this aspect, we investigated the viability of SW620 colon cancer cells and their multidrug-resistant variants (overexpressing ABCB1, ABCC1, and ABCG2) exposed to 1 and 10 μM 4a–e using a neutral red uptake assay (Table ). In” for “In”
as §5, §6, §7, §8

In the case of O=C1N/C(=C\[c-]2cccc2)C(=O)N2CCC[C@@H]12.[Fe+2].c1cc[cH-]c1 [(S,Z)-4a], the “5D3 antibody binding to ABCG2” value (ABCG2) is reported as “recognized as ABCG2 allocrites” and the “UIC-2 antibody binding to ABCB1” value (ABCB1) is reported as “binding patterns expected for ABCB1 allocrites”.

With O=C1N/C(=C\c2ccc(-[c-]3cccc3)cc2)C(=O)N2CCC[C@@H]12.[Fe+2].c1cc[cH-]c1 [(S,Z)-4d] the “5D3 antibody binding to ABCG2” value (ABCG2) was “recognized as ABCG2 allocrites” and the “UIC-2 antibody binding to ABCB1” value (ABCB1) was “binding patterns expected for ABCB1 allocrites; also recorded: enhance UIC-2 antibody binding”.

With O=C1N/C(=C\c2ccccc2-[c-]2cccc2)C(=O)N2CCC[C@@H]12.[Fe+2].c1cc[cH-]c1 [(S,Z)-4b] the “5D3 antibody binding to ABCG2” value (ABCG2) was “recognized as ABCG2 allocrites” and the “UIC-2 antibody binding to ABCB1” value (ABCB1) was “binding patterns expected for ABCB1 allocrites; also recorded: enhance UIC-2 antibody binding”.

With O=C1N/C(=C/c2cccc(-[c-]3cccc3)c2)C(=O)N2CCC[C@@H]12.[Fe+2].c1cc[cH-]c1 [(S,E)-4c] the “5D3 antibody binding to ABCG2” value (ABCG2) was “no detectable interaction” and the “UIC-2 antibody binding to ABCB1” value (ABCB1) was “no detectable interaction”.

O=C1N/C(=C/c2ccccc2)C(=O)N2CCC[C@@H]12 [(S,E)-4e] showed an IC50 at 72 h [1] greater than 100 µM and an IC50 at 72 h [2] greater than 100 µM.

Work on O=C1N/C(=C\c2ccccc2)C(=O)N2CCC[C@@H]12 [(S,Z)-4e] yielded an IC50 at 72 h [1] greater than 100 µM and an IC50 at 72 h [2] greater than 100 µM.
